Results reported in patent EP3797781A1, “USE OF EC-7072 AND SYNERGIC COMPOSITIONS THEREOF IN TREATMENT OF CHRONIC LYMPHOCYTIC LEUKEMIA” (priority 2019, dated 2021).

Key:
Format in all cases: cell-based, human
[1] = test system: leukemia cells; experiment: Apoptosis of leukemia cells by Annexin V/PI staining; conditions: 0 - 400 nM, 24 hours; PBMCs from patients with CLL (n = 6)
Description: Cell viability and apoptosis were evaluated by double-staining with the mitochondrial inner transmembrane potential (ΔΨm)-sensitive dye DiOC6(3) (3,3'-dihexyloxacarbocyanine iodide; Sigma-Aldrich) and the exclusion dye propidium iodide (PI; Immunostep), allowing identification of apoptotic [DiOC6(3)^low PI^-] and dead [PI^+] cells as per Proc. Natl. Acad. Sci. U.S.A. (2014) 111(8):3020-3025 and Methods Mol. Biol. (2016) 1419:1-16. Briefly, PBMCs were resuspended in culture medium containing 20 nM DiOC6(3) and incubated for 30 minutes at 37 °C. Then, PI (1 µg/mL) was added and cells were further incubated for 10 minutes at room temperature (RT). Cells were analyzed by flow cytometry considering DiOC6(3)^+PI^- cells as viable. In some experiments, apoptosis was evaluated by staining with Annexin V/PI. […]
(§1) The induction of caspase-dependent apoptosis on primary CLL cells by EC-7072 was assessed by: • (i) incubating PBMCs isolated from patients with CLL (n = 6) following treatment with increasing concentrations of EC-7072 (0 - 400 nM) for 24 hours. Apoptosis of leukemia cells was evaluated by cytofluorometric assessment of Annexin V/PI staining to obtain percentages of apoptotic [Annexin V^+ PI^-] and dead [PI^+] cells (Figure 3A); • (ii) incubating PBMCs and T cells isolated from patients with CLL (n = 3) following treatment with EC-7072 (200 nM) for 24 hours. […]

[2] = test system: active caspase-3; experiment: Caspase-3 activity assay in leukemia cells (flow cytometry); conditions: 0 - 400 nM, 24 hours; leukemia cells in PBMCs from patients with CLL (n = 6)
Description: Intracellular levels of activated caspase-3 were measured by using CaspGLOW™ Fluorescein Active Caspase-3 Staining Kit (Invitrogen). In brief, EC-7072 (200 nM) or DMSO-treated PBMCs from patients with CLL were incubated with FITC-DEVD-fmk for 30 minutes at 37 °c and fluorescence was next analyzed by flow cytometry in leukemia cells. For some experiments, cells were pretreated for 2 hours with the indicated doses of the broad-spectrum caspase inhibitor Z-VAD-fmk.
The induction of caspase-dependent apoptosis on primary CLL cells by EC-7072 was assessed by: • (i) incubating PBMCs isolated from patients with CLL (n = 6) following treatment with increasing concentrations of EC-7072 (0 - 400 nM) for 24 hours. Apoptosis of leukemia cells was evaluated by cytofluorometric assessment of Annexin V/PI staining to obtain percentages of apoptotic [Annexin V^+ PI^-] and dead [PI^+] cells (Figure 3A); • (ii) incubating PBMCs and T cells isolated from patients with CLL (n = 3) following treatment with EC-7072 (200 nM) for 24 hours. T cell apoptosis was evaluated by cytofluorometric assessment of Annexin V/PI staining to obtain percentages of viable [Annexin V-], apoptotic [Annexin V^+ PI^-] and dead [PI^+] cells (Figure 3B); • (iii) incubating PBMCs isolated from patients with CLL (n = 6) following treatment with EC-7072 (0 - 400 nM) for 24 hours. […]

[3] = test system: histone H2AX; experiment: Phosphoflow of phosphorylated H2AX in isolated leukemia cells; conditions: 200 nM, 12 hours; isolated leukemia cells (n = 4)
Description: Protein phosphorylation levels were evaluated by phosphoflow. Briefly, isolated leukemia cells from patients with CLL were treated with 200 nM EC-7072 or DMSO for 8 or 12 hours. In some experiments, BCR signaling was activated with goat F(ab')2 anti-IgM antibody (10 µg/mL; SouthernBiotech) for 45 minutes. Right afterwards, cells were fixed with 1.8% paraformaldehyde for 10 minutes at RT and permeabilized with 90% ice-cold methanol for 25 minutes at 4 °C. Finally, cells were incubated with specific phospho-antibodies (p-SYK, p-BTK, p-ERK1/2 and p-H2AX from Biolegend, and p-PLCγ2, p-AKT, p-p65 NF-κB and p-STAT3 from BD Bioscience) for 30 minutes at RT and mean fluorescence intensity (MFI) was analyzed by flow cytometry.
as §1

[4] = test system: HK-2 cells; experiment: Cell death of HK-2 cells by PI staining; conditions: 200 nM, 24 hours; n = 3
Description: Effectiveness of EC-7072 against different B-cell malignancies was assessed by; • (i) incubating primary fibroblasts from healthy donors (n = 4) and HK-2 cells from healthy human adult kidney (n = 3) following treatment with MTA (200 nM) or EC-7072 (200 nM) for 24 hours. Cell death was evaluated by PI staining to obtain the percentages corresponding to the [PI^+] subset (Figure 5A) and the mean percentage of [PI^+] cells (Figure 5B); • (ii) treating MEC-1, GRANTA-519, Z-138, JVM-2, CA-46, Ramos, Raji and U266 cell lines (n = 3) following treatment with EC-7072 (500 nM) followed by incubation for 24 hours. Cell viability was assessed by DiOC6(3)/PI staining and normalized to control (DMSO) condition to obtain mean percentage of viable [DiOC6(3)^+] cells (Figure 5C).

SMILES: CO[C@@H]([C@@H]1Cc2cc3cc(O[C@H]4C[C@@H](O[C@H]5C[C@@H](O)[C@H](O)[C@@H](C)O5)[C@H](O)[C@@H](C)O4)c(C)c(O)c3c(O)c2C(=O)[C@H]1O[C@H]1C[C@@H](O[C@H]2C[C@@H](O[C@H]3C[C@](C)(O)[C@H](O)[C@@H](C)O3)[C@@H](O)[C@@H](C)O2)[C@H](O)[C@@H](C)O1)[C@@H](O)C(C)=O [EC-7072, mithramycin SK]
- apoptosis of leukemia cells (Annexin V/PI) [1]: significantly induces CLL cell apoptosis
- intracellular levels of active caspase-3 [2]: dose-dependent increase
- phosphorylation of histone H2AX [3]: heightened phosphorylation
- viability of HK-2 cells (PI^+ cells) [4]: did not markedly affect the viability
